Experimental data as given in patent publication US10889573B2, “Anthelmintic quinoline-3-carboxamide derivatives” (Bayer Animal Health GMBH, priority 2016, dated 2021).

Columns and labels:
[1] = system: Dirofilaria immitis microfilariae; experiment: In vitro assay 3: Dirofilaria immitis microfilariae (DIROIM L1), motility; settings: 72 h, read-out: EC50 (reduction of motility), 72 h incubation
C. elegans Slo-1a = C. elegans Slo-1a (Caenorhabditis elegans, UniProt Q95V25); settings: pE50 (negative decadic logarithm of EC50), CHO cells expressing C. elegans Slo-1a, voltage sensitive dye
Experimental: In Vitro Assay 1: C. elegans Slo-1a—Action at a Recombinant C. elegans Cell Line
Cells were cultured at 37° C. and 5% CO2 in MEMalpha with Gutamax I (Invitrogen, Nr.: 32571), supplemented with 10% (v/v) heat inactivated fetal bovine serum (Invitrogen, Nr.: 10500), G418 (1 mg/ml, Invitrogen, Nr.: 10131). Cells were detached using Accutase (Sigma, Nr.: A6964).
Membrane Potential Measurements
Laboratory compound testing was performed on 384-well microtiter plates (MTPs, Greiner, Nr.: 781092). 8000 cells/well were plated onto 384-well MTPs and cultured for 20 to 24 hours at 37° C. and 5% CO2. After removal of the cell culture medium, the cells were washed once with tyrode (150 mM NaCl, 0.3 mM KCl, 2 mM CaCl2, 1 mM MgCl2, 0.8 mM NaH2PO4, 5 mM Glucose, 28 mM Hepes, pH 7.4) and then loaded with the voltage sensitive dye of the Membrane Potential Assay Kit diluted in tyrode for 1 h at room temperature.
After starting the measurement of fluorescence using a FLIPR Tetra (Molecular Devices, Exc. 510-545 nm, Emm. 565-625 nm), test compounds were added followed by the addition of KCl tyrode (final assay concentration: 70 mM KCl, 2 mM CaCl2, 1 mM MgCl2, 0.8 mM NaH2PO4, 5 mM Glucose, 28 mM Hepes, pH 7.4, including the voltage sensitive dye). The measurement was completed after 7 minutes.
The data were evaluated by using the ActivityBase XLfit software (IDBS) for curve fitting and calculation of the half-maximal effective concentration (EC50) and are reported as negative decadic logarithm (pE50).

[2] = system: Dirofilaria immitis third-stage larvae; experiment: In vitro assay 4: Dirofilaria immitis (DIROIM L4), motility; settings: 72 h, read-out: EC50 (reduction of motility)
Cooperia curticei = settings: for mortality at 4 ppm / mortality at 20 ppm: Cooperia curticei, 120 h, read-out: activity (larval mortality)
Experimental: In Vitro Assay 6: Cooperia curticei (COOPCU L3)
Solvent: dimethyl sulfoxide
Approximately 40 nematode larvae (Cooperia curticei) are transferred into a test tube containing the compound solution.
After 5 days percentage of larval mortality is recorded. 100% efficacy means all larvae are killed; 0% efficacy means no larvae are killed.

[3] = system: Nippostrongylus brasiliensis; experiment: In vitro assay 2: Nippostrongylus brasiliensis (NIPOBR), acetylcholine esterase readout; settings: read-out: activity (reduction of AChE compared to negative control); for inhibition at 1 µg/mL: 1 μg/ml; for inhibition at 10 µg/mL: 10 μg/ml
Experimental: In Vitro Assay 2: Nippostrongylus brasiliensis (NIPOBR)
Adult Nippostrongylus brasiliensis were washed with saline buffer containing 100 U/ml penicillin, 0.1 mg/ml streptomycin and 2.5 μg/ml amphotericin B. Test compounds were dissolved in DMSO and worms were incubated in medium in a final concentration of 10 μg/ml (10 ppm) respectively 1 μg/ml (1 ppm). An aliquot of the medium was used to determine the acetylcholine esterase activity in comparison to a negative control. The principle of measuring acetylcholine esterase as readout for anthelmintic activity was described in Rapson et al (1986) and Rapson et al (1987).

Haemonchus contortus = settings: 120 h, read-out: activity (larval mortality)
Experimental: In Vitro Assay 7: Haemonchus contortus (HAEMCO L3)
Solvent: dimethyl sulfoxide
Approximately 40 larvae of the red stomach worm (Haemonchus contortus) are transferred into a test tube containing compound solution.
After 5 days the percentage of larval mortality is recorded. 100% efficacy means all larvae are killed, 0% efficacy means no larvae are killed.

C. elegans Slo-1a, sequence (Q95V25 whole entry): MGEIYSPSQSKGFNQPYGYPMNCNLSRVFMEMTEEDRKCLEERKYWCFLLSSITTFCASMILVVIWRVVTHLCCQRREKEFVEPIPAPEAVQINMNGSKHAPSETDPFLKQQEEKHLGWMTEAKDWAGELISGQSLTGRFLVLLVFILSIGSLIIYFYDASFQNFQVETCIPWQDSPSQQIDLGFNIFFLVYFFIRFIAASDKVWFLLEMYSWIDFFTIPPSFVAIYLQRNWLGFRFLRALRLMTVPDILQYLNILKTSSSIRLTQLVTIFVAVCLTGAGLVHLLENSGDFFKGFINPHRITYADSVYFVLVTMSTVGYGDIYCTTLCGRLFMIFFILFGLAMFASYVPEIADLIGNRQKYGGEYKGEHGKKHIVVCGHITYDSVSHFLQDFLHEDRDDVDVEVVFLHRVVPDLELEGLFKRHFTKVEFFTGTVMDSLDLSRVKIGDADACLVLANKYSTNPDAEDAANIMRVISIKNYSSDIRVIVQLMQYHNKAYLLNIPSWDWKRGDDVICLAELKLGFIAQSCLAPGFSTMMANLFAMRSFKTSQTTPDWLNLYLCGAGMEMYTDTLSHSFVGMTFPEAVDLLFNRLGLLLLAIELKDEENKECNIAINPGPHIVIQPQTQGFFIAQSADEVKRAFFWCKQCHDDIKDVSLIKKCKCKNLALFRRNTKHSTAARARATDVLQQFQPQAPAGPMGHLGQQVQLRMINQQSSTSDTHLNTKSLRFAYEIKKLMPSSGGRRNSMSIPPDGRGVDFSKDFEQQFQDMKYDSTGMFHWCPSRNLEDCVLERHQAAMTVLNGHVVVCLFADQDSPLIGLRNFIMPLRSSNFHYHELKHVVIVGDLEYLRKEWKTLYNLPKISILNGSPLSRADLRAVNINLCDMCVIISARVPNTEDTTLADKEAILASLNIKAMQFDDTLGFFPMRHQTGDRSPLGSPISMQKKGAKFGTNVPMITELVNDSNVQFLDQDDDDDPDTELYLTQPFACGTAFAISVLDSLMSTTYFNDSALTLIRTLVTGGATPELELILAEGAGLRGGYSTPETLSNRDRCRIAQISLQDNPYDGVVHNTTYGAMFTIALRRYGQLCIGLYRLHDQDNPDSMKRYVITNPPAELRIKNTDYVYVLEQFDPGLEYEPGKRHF

Structure (SMILES)	EC50 [1] [mg/L]	EC50 (C. elegans Slo-1a) [nM]	EC50 [2] [mg/L]	mortality at 4 ppm (Cooperia curticei) [%]	mortality at 20 ppm (Cooperia curticei) [%]	inhibition at 1 µg/mL [3] [%]	inhibition at 10 µg/mL [3] [%]	mortality at 20 ppm (Haemonchus contortus) [%]	activity (larval mortality) (Cooperia curticei; 0.8 ppm, after 5 days) [%]	mortality at 4 ppm (Haemonchus contortus) [%]
O=C(N[C@H]1CCOc2ccccc21)c1cnc2c(-c3ccc(F)c(Cl)c3)cccc2c1N1CCC(O)C1 (mixture of isomers) [Example 196]	< 0.1	3.16 to 31.6	< 0.1	90	100	–	–	–	–	–
Cc1cc(C)cc(-c2cccc3c(Cl)c(C(=O)N[C@H]4CCCc5ccccc54)cnc23)c1 [Example 1, 4-chloro-8-(3,5-dimethylphenyl)-N-[(1S)-1,2,3,4-tetrahydronaphthalen-1-yl]quinoline-3-carboxamide]	< 0.1	31.6 to 316	< 1	–	–	–	–	–	–	–
O=C(N[C@H]1CCCc2ccccc21)c1cnc2c(-c3cc(Cl)cc(Cl)c3)cccc2c1Cl [Example 2]	< 10	3.16 to 31.6	< 1	–	–	–	–	–	–	–
O=C(N[C@H]1CCOc2ccccc21)c1cnc2c(-c3cc(Cl)c(F)c(Cl)c3)cc(F)cc2c1N1CCOCC1 [Example 43]	< 0.1	< 3.16	< 0.1	–	–	> 80	> 80	–	–	–
CN(C)c1c(C(=O)N[C@H]2CCOc3ccccc32)cnc2c(-c3ncccc3F)cccc12 [Example 62]	< 1	31.6 to 316	< 0.1	–	–	–	> 80	–	–	–
COc1cc(-c2cccc3c(N(C)C)c(C(=O)N[C@H]4CCOc5ccccc54)cnc23)ccn1 [Example 64]	< 0.1	3.16 to 31.6	< 0.1	–	–	–	> 80	–	–	–
O=C(N[C@H]1CCc2ccccc21)c1cnc2c(-c3cc(Cl)cc(Cl)c3)cccc2c1N1CC(F)C1 [Example 119]	< 0.1	3.16 to 31.6	< 0.1	–	–	> 80	> 80	–	–	–
CN(C)c1c(C(=O)N[C@H]2CCOc3ccccc32)cnc2c(-c3ccc(F)cc3Cl)cc(F)cc12 [Example 180]	< 0.1	3.16 to 31.6	–	–	–	–	–	80	–	–
O=C(N[C@H]1CCOc2ccccc21)c1cnc2c(-c3ccc(F)c(Cl)c3)cccc2c1N1CCOCC1 [Example 190]	–	–	–	–	–	–	–	–	80	–
O=C(N[C@H]1CCOc2ccccc21)c1cnc2c(-c3cccc(F)c3Cl)cccc2c1N1CCOCC1 [Example 238]	< 0.1	< 3.16	< 0.1	–	80	> 80	–	–	–	–
O=C(N[C@H]1CCOc2ccccc21)c1cnc2c(-c3cc(Cl)cc(Cl)c3)cccc2c1N1CCC[C@H]1C(=O)O [Example 261, 1-{8-(3,5-dichlorophenyl)-3-[(4S)-3,4-dihydro-2H-chromen-4-ylcarbamoyl]quinolin-4-yl}-L-proline]	< 0.1	–	< 0.1	–	–	> 80	–	–	–	–
O=C(O)CNc1c(C(=O)N[C@H]2CCOc3ccccc32)cnc2c(-c3cc(Cl)cc(Cl)c3)cccc12 [Example 276]	< 0.1	31.6 to 316	–	–	90	> 80	–	80	–	–
CN(C)c1c(C(=O)N[C@H]2CCOc3ccccc32)cnc2c(-c3c(F)cccc3F)cccc12 [Example 277]	< 0.1	< 3.16	< 0.1	–	–	> 80	–	–	–	–
O=C(N[C@H]1CCOc2ccccc21)c1cnc2c(-c3c(F)cccc3F)c(F)ccc2c1N1CCOCC1 [Example 278]	< 0.1	< 3.16	< 0.1	–	–	–	–	–	–	–
O=C(N[C@H]1CCOc2ccccc21)c1cnc2c(-c3cc(Cl)cc(Cl)c3)cccc2c1N1CC[C@@H](O)C1 [Example 283]	< 0.1	< 3.16	< 0.1	–	–	> 80	–	–	–	–
C[C@H]1CN(c2c(C(=O)N[C@H]3CCOc4ccccc43)cnc3c(-c4cc(Cl)cc(Cl)c4)cccc23)CCO1 [Example 290]	< 0.1	< 3.16	< 0.1	–	–	> 80	–	–	–	–
COCCNc1c(C(=O)N[C@H]2CCc3ccccc32)cnc2c(-c3cc(Cl)cc(Cl)c3)cccc12 [Example 298]	–	< 3.16	–	–	80	–	–	–	–	–
O=C(N[C@H]1CCOc2ccccc21)c1cnc2c(-c3cccc(Cl)c3Cl)c(C(F)(F)F)ccc2c1N1CCOCC1 [Example 314]	< 0.1	< 3.16	< 0.1	–	90	> 80	–	–	–	–

Structure (SMILES)	EC50 [1] [mg/L]	EC50 (C. elegans Slo-1a) [nM]	EC50 [2] [mg/L]	mortality at 4 ppm (Cooperia curticei) [%]	mortality at 20 ppm (Cooperia curticei) [%]	inhibition at 1 µg/mL [3] [%]	inhibition at 10 µg/mL [3] [%]	mortality at 20 ppm (Haemonchus contortus) [%]	activity (larval mortality) (Cooperia curticei; 0.8 ppm, after 5 days) [%]	mortality at 4 ppm (Haemonchus contortus) [%]
CN(C)c1c(C(=O)N[C@H]2CCOc3ccccc32)cnc2c(-c3cccc(Cl)c3Cl)c(C(F)(F)F)ccc12 [Example 315]	< 0.1	< 3.16	< 0.1	–	80	> 80	–	–	–	–
O=C(N[C@H]1CCOc2ccccc21)c1cnc2c(-c3cccc(OC(F)(F)F)c3)cccc2c1N1CCOCC1 [Example 322]	< 0.1	< 3.16	< 0.1	–	80	> 80	–	–	–	–
COCCOc1c(C(=O)N[C@H]2CCOc3ccccc32)cnc2c(-c3cc(Cl)cc(Cl)c3)cccc12 [Example 338]	< 0.1	< 3.16	< 0.1	90	90	> 80	> 80	–	–	–
N#CCc1c(C(=O)N[C@H]2CCOc3ccccc32)cnc2c(-c3cc(Cl)cc(Cl)c3)cccc12 [Example 355, 4-(cyanomethyl)-8-(3,5-dichlorophenyl)-N-[(4S)-3,4-dihydro-2H-chromen-4-yl]quinoline-3-carboxamide]	< 0.1	< 3.16	< 0.1	–	–	> 80	–	–	–	–
NC(=O)Cc1c(C(=O)N[C@H]2CCOc3ccccc32)cnc2c(-c3cc(Cl)cc(Cl)c3)cccc12 [Example 360, 4-(2-amino-2-oxoethyl)-8-(3,5-dichlorophenyl)-N-[(4S)-3,4-dihydro-2H-chromen-4-yl]quinoline-3-carboxamide]	< 0.1	3.16 to 31.6	< 0.1	–	–	> 80	–	–	–	–
N#Cc1c(C(=O)N[C@H]2CCOc3ccccc32)cnc2c(-c3cc(Cl)cc(Cl)c3)cccc12 [Example 362, 4-cyano-8-(3,5-dichlorophenyl)-N-[(4S)-3,4-dihydro-2H-chromen-4-yl] quinoline-3-carboxamide]	< 0.1	–	< 0.1	–	–	> 80	> 80	–	–	–
O=C(N[C@H]1CCOc2ccccc21)c1cnc2c(-c3cc(Cl)cc(Cl)c3)cccc2c1N1CC(F)C1 [Example 392]	< 0.1	3.16 to 31.6	< 0.1	–	–	> 80	–	80	–	80
Cc1ccc(F)c(-c2cccc3c(N(C)C)c(C(=O)N[C@H]4CCOc5ccccc54)cnc23)c1 [Example 437]	< 0.1	< 3.16	< 0.1	80	–	> 80	–	–	–	–
O=C(N[C@H]1CCOc2ccccc21)c1cnc2c(-c3cc(Cl)sc3Cl)cccc2c1N1CCOCC1 [Example 441]	< 0.1	< 3.16	< 0.1	–	–	> 80	–	–	–	–
O=C(N[C@H]1CCOc2ccccc21)c1cnc2c(-c3sccc3Cl)cccc2c1N1CCOCC1 [Example 442]	< 0.1	< 3.16	< 0.1	–	–	–	–	–	–	–
Cc1ccc(C)c(-c2cccc3c(N(C)C)c(C(=O)N[C@H]4CCOc5ccccc54)cnc23)c1 [Example 471]	< 0.1	3.16 to 31.6	–	–	80	> 80	–	–	–	80
C=Cc1c(C(=O)N[C@H]2CCOc3ccccc32)cnc2c(-c3cc(Cl)cc(Cl)c3)cccc12 [Example 478]	< 0.1	< 3.16	< 0.1	–	–	> 80	–	–	–	–
CN(C)c1c(C(=O)NC2CSc3ccccc32)cnc2c(-c3cc(Cl)cc(Cl)c3)cccc12 (centres unmarked) [Example 493]	< 0.1	3.16 to 31.6	< 0.1	–	–	–	–	–	–	–
CCc1c(C(=O)N[C@H]2CCOc3ccccc32)cnc2c(-c3cccc(OC(F)(F)F)c3)cccc12 [Example 570]	< 0.1	3.16 to 31.6	< 0.1	–	–	> 80	–	–	–	–
Cc1cc(-c2cccc3c(N4CCOCC4)c(C(=O)N[C@H]4CCOc5ccccc54)cnc23)cc(C(C)(C)C)c1 [Example 587]	< 0.1	< 3.16	< 0.1	–	80	> 80	–	–	–	–
CN(C)c1c(C(=O)N[C@H]2CCOc3ccccc32)cnc2c(-c3cc(C#N)cc(Cl)c3Cl)cccc12 [Example 624]	< 0.1	< 3.16	–	80	100	> 80	–	80	–	–
CC(=O)N(C)Cc1c(C(=O)N[C@H]2CCOc3ccccc32)cnc2c(-c3cc(Cl)cc(Cl)c3)cccc12 [Example 631]	< 10	< 3.16	–	100	100	> 80	–	100	–	100
